Source: paper PMC12668310, “High‐Throughput Synthesis and Screening of a Cyanimide Library Identifies Selective Inhibitors of ISG15‐Specific Protease mUSP18” (Angewandte Chemie (International Ed. in English), 2025)

Each molecule was assayed against T1, mUSP18 (Mus musculus, UniProt Q9WTV6) (assay: High-throughput screening, ISG15ct-RhoMP, single dose 1.25 µM). Details: mUSP18 %inhibition; carboxylic acid (CA) building block alone.
T1 construct: (46-368); His-tag (N); made in house
T1 sequence (Q9WTV6 46-368): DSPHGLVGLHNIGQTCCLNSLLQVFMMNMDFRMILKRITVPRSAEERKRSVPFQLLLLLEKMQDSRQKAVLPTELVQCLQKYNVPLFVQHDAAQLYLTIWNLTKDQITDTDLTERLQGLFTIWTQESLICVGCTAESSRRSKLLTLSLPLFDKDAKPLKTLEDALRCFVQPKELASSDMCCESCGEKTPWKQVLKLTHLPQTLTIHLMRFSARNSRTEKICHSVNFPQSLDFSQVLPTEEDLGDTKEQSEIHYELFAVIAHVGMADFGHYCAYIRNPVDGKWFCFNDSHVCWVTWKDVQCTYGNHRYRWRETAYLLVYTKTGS
Type: biochemical, murine
In the case of `O=C(O)c1cnccn1` [CA015], the “%inh CA only” value is reported as -1.35%. `Cc1ccc(Br)c(C(=O)O)c1` [CA033] was tested, and the “%inh CA only” value was -2.06%. `CN1C(=O)C[C@@H](C(=O)O)[C@@H]1c1cccnc1` [CA042] was tested, and the “%inh CA only” value was 0.50%. `Cc1ccc(Br)c(C(=O)O)c1` [CA053] was tested, and the “%inh CA only” value was -8.05%. With `O=C(O)c1cnccn1` [CA081] the “%inh CA only” value was -6.50%.

Same assay, conditions: mUSP18 %inhibition; carboxylic acid (CA) building block alone; read-out: %inh CA only
Molecule `CSCCC(NC(C)=O)C(=O)O` (centres unmarked) [CA001] has an inhibition at 1.25 µM of 4.64%. Molecule `CC(=O)NCC(=O)O` [CA002] has an inhibition at 1.25 µM of 0.89%. `CC(C)CC(=O)O` [CA003] was tested, and the inhibition at 1.25 µM was -0.18%. Molecule `O=C(O)c1ccccc1I` [CA004] has an inhibition at 1.25 µM of -4.47%. Molecule `CC(C)C(=O)O` [CA005] has an inhibition at 1.25 µM of -4.83%. For `Cc1cc(OCC(=O)O)ccc1C(C)C` [CA006], the inhibition at 1.25 µM was -6.56%. Molecule `CCCC(=O)O` [CA007] has an inhibition at 1.25 µM of -4.83%. Molecule `CC(C)(C)OC(=O)Nc1ccccc1C(=O)O` [CA009] has an inhibition at 1.25 µM of -1.43%. Molecule `Cc1cncc(C(=O)O)c1` [CA010] has an inhibition at 1.25 µM of -2.59%. In the case of `O=C(O)CCN1C(=O)C=CC1=O` [CA011], the inhibition at 1.25 µM is reported as 7.63%. `O=C(O)Cc1ccc([N+](=O)[O-])cc1` [CA012] gave an inhibition at 1.25 µM of -3.85%. Work on `O=C(O)Cc1ccccc1[N+](=O)[O-]` [CA013] yielded an inhibition at 1.25 µM of 7.76%. In the case of `C#CCCC(=O)O` [CA014], the inhibition at 1.25 µM is reported as -1.43%. `O=C(O)c1ccc(/N=N/c2ccccc2)cc1` [CA016] gave an inhibition at 1.25 µM of 3.44%. `O=C(O)Cc1ccncc1` [CA017] showed an inhibition at 1.25 µM of -7.18%. For `Cn1c(=O)c2c(ncn2CC(=O)O)n(C)c1=O` [CA018], the inhibition at 1.25 µM was -2.06%. For `O=C(O)CNC(=O)c1ccccc1` [CA019], the inhibition at 1.25 µM was -4.39%. Work on `O=C(O)c1ccc(B(O)O)cc1` [CA020] yielded an inhibition at 1.25 µM of -7.88%. In the case of `CC(C)(C)OC(=O)NCC(=O)O` [CA021], the inhibition at 1.25 µM is reported as -6.16%. `CC(C)(C)OC(=O)N[C@@H](Cc1cn(-c2ccc([N+](=O)[O-])cc2[N+](=O)[O-])cn1)C(=O)O` [CA022] was tested, and the inhibition at 1.25 µM was -4.55%. For `O=C(O)CCCCBr` [CA023], the inhibition at 1.25 µM was -5.49%. In the case of `O=C(O)C(Br)c1ccccc1` (centres unmarked) [CA024], the inhibition at 1.25 µM is reported as -2.41%. Molecule `O=C(O)CCCCCBr` [CA025] has an inhibition at 1.25 µM of 7.25%. `O=C(O)c1ccccc1CCc1ccccc1` [CA026] showed an inhibition at 1.25 µM of 2.38%. With `O=C(O)c1ccc(CBr)cc1` [CA027] the inhibition at 1.25 µM was 0.19%. `Cc1cc(C(=O)O)ccc1Br` [CA028] showed an inhibition at 1.25 µM of -3.46%. Molecule `O=C(O)c1nccc2ccccc12` [CA030] has an inhibition at 1.25 µM of -2.62%. `Cc1c(Br)cccc1C(=O)O` [CA031] gave an inhibition at 1.25 µM of -3.59%. With `CC(=O)CCCCC(=O)O` [CA032] the inhibition at 1.25 µM was -5.09%. `O=C(O)c1sccc1Br` [CA034] showed an inhibition at 1.25 µM of -2.15%. `O=C(NNc1ccc(C(=O)O)cc1)OCC1c2ccccc2-c2ccccc21` [CA035] gave an inhibition at 1.25 µM of 9.05%. With `O=Cc1cn(CC(=O)O)c2ccccc12` [CA036] the inhibition at 1.25 µM was -2.36%. In the case of `O=Cc1ccc(C(=O)O)cc1` [CA037], the inhibition at 1.25 µM is reported as 9.56%. Molecule `O=C(O)c1cccc2c1-c1ccccc1C2` [CA038] has an inhibition at 1.25 µM of 6.69%. `O=Cc1ccc(O)c(C(=O)O)c1` [CA040] was tested, and the inhibition at 1.25 µM was 1.03%. `CCCN(CCC)S(=O)(=O)c1ccc(C(=O)O)cc1` [CA041] was tested, and the inhibition at 1.25 µM was -0.96%. `O=C(O)CCc1ccccc1Br` [CA043] gave an inhibition at 1.25 µM of -0.54%. `CC(=O)CCCC(=O)O` [CA044] showed an inhibition at 1.25 µM of -3.03%.

Same assay, conditions: mUSP18 %inhibition; carboxylic acid (CA) with coupling reagents DIC/HOBT
`O=C(O)c1cnccn1` [CA015] was tested, and the “%inh CA + DIC/HOBT” value was -15.60%. For `Cc1ccc(Br)c(C(=O)O)c1` [CA033], the “%inh CA + DIC/HOBT” value was -9.49%. `CN1C(=O)C[C@@H](C(=O)O)[C@@H]1c1cccnc1` [CA042] was tested, and the “%inh CA + DIC/HOBT” value was -12.12%. `Cc1ccc(Br)c(C(=O)O)c1` [CA053] was tested, and the “%inh CA + DIC/HOBT” value was -15.25%. In the case of `O=C(O)c1cnccn1` [CA081], the “%inh CA + DIC/HOBT” value is reported as -13.28%.

Same assay, conditions: mUSP18 %inhibition; carboxylic acid (CA) with coupling reagents DIC/HOBT; read-out: %inh CA + DIC/HOBT
`CSCCC(NC(C)=O)C(=O)O` (centres unmarked) [CA001] was tested, and the inhibition at 1.25 µM was -9.16%. `CC(=O)NCC(=O)O` [CA002] showed an inhibition at 1.25 µM of -10.9%. Molecule `CC(C)CC(=O)O` [CA003] has an inhibition at 1.25 µM of -12.3%. `O=C(O)c1ccccc1I` [CA004] gave an inhibition at 1.25 µM of -12.2%. In the case of `CC(C)C(=O)O` [CA005], the inhibition at 1.25 µM is reported as -18%. `Cc1cc(OCC(=O)O)ccc1C(C)C` [CA006] was tested, and the inhibition at 1.25 µM was -10.7%. In the case of `CCCC(=O)O` [CA007], the inhibition at 1.25 µM is reported as -14.7%. With `CC(C)(C)OC(=O)Nc1ccccc1C(=O)O` [CA009] the inhibition at 1.25 µM was -19.3%. `Cc1cncc(C(=O)O)c1` [CA010] showed an inhibition at 1.25 µM of -11.3%. Molecule `O=C(O)CCN1C(=O)C=CC1=O` [CA011] has an inhibition at 1.25 µM of -2.16%. `O=C(O)Cc1ccc([N+](=O)[O-])cc1` [CA012] showed an inhibition at 1.25 µM of -8.78%. `O=C(O)Cc1ccccc1[N+](=O)[O-]` [CA013] gave an inhibition at 1.25 µM of -7.61%. With `C#CCCC(=O)O` [CA014] the inhibition at 1.25 µM was -9.92%. Molecule `O=C(O)c1ccc(/N=N/c2ccccc2)cc1` [CA016] has an inhibition at 1.25 µM of -5.83%. `O=C(O)Cc1ccncc1` [CA017] gave an inhibition at 1.25 µM of -13%. For `Cn1c(=O)c2c(ncn2CC(=O)O)n(C)c1=O` [CA018], the inhibition at 1.25 µM was -10.4%. Molecule `O=C(O)CNC(=O)c1ccccc1` [CA019] has an inhibition at 1.25 µM of -8.67%. For `O=C(O)c1ccc(B(O)O)cc1` [CA020], the inhibition at 1.25 µM was -9.11%. `CC(C)(C)OC(=O)NCC(=O)O` [CA021] gave an inhibition at 1.25 µM of -9.92%. With `CC(C)(C)OC(=O)N[C@@H](Cc1cn(-c2ccc([N+](=O)[O-])cc2[N+](=O)[O-])cn1)C(=O)O` [CA022] the inhibition at 1.25 µM was -8.26%. In the case of `O=C(O)CCCCBr` [CA023], the inhibition at 1.25 µM is reported as -14.3%. `O=C(O)C(Br)c1ccccc1` (centres unmarked) [CA024] gave an inhibition at 1.25 µM of -9.9%. With `O=C(O)CCCCCBr` [CA025] the inhibition at 1.25 µM was -8.17%. `O=C(O)c1ccccc1CCc1ccccc1` [CA026] was tested, and the inhibition at 1.25 µM was -14.8%. Molecule `O=C(O)c1ccc(CBr)cc1` [CA027] has an inhibition at 1.25 µM of -11.3%. `Cc1cc(C(=O)O)ccc1Br` [CA028] gave an inhibition at 1.25 µM of -11%. Molecule `O=C(O)c1nccc2ccccc12` [CA030] has an inhibition at 1.25 µM of -9.45%. `Cc1c(Br)cccc1C(=O)O` [CA031] showed an inhibition at 1.25 µM of -10.1%. `CC(=O)CCCCC(=O)O` [CA032] was tested, and the inhibition at 1.25 µM was -11.3%. With `O=C(O)c1sccc1Br` [CA034] the inhibition at 1.25 µM was -14%. In the case of `O=C(NNc1ccc(C(=O)O)cc1)OCC1c2ccccc2-c2ccccc21` [CA035], the inhibition at 1.25 µM is reported as 23.4%. In the case of `O=Cc1cn(CC(=O)O)c2ccccc12` [CA036], the inhibition at 1.25 µM is reported as -8.7%. `O=Cc1ccc(C(=O)O)cc1` [CA037] was tested, and the inhibition at 1.25 µM was -5.24%. For `O=C(O)c1cccc2c1-c1ccccc1C2` [CA038], the inhibition at 1.25 µM was -7.2%. `O=Cc1ccc(O)c(C(=O)O)c1` [CA040] gave an inhibition at 1.25 µM of -7.73%. `CCCN(CCC)S(=O)(=O)c1ccc(C(=O)O)cc1` [CA041] showed an inhibition at 1.25 µM of -9.25%. For `O=C(O)CCc1ccccc1Br` [CA043], the inhibition at 1.25 µM was -8.19%. Molecule `CC(=O)CCCC(=O)O` [CA044] has an inhibition at 1.25 µM of -7.52%.
